Columns and labels:
[1] = molecular target: T1, stromelysin-1 catalytic domain (SCD) (Homo sapiens, UniProt P08254); test: Isothermal titration calorimetry of ligand binding
[2] = molecular target: T1, stromelysin-1 catalytic domain (SCD); conditions: in Tris–HCl, not corrected for proton transfer; cited from earlier work

T1 sequence (P08254 100-272 limits assumed, species assumed): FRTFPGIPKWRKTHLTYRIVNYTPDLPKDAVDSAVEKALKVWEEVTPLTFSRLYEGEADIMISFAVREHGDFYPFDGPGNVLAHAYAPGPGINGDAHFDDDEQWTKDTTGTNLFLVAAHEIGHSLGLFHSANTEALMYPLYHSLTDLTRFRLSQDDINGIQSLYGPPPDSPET

| ΔG^0 ([1]; ITC, pH 7.5, 3% DMSO) [kcal/mol] | ΔHbind0 ([1]; ITC, pH 7.5, 3% DMSO, corrected for proton transfer) [kcal/mol] | ΔCP ([1]; from titrations at 15, 25 and 37 °C, by regression) [cal mol^−1 K^−1] | SMILES | ΔHobs [2] [kcal/mol] |
| --- | --- | --- | --- | --- |
| -2.4 ± 0.3 | -2.3 ± 0.2 | −67 ± 24 | CC(=O)NO [Compound 8, acetohydroxamic acid] | – |
| – | – | – | Oc1ccccc1 [phenol] | -4.7 |

From PMC3763901 (Bioorganic & medicinal chemistry letters, 2012)
